From PubChem BioAssay (NCI)
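In this assay, cells in 96-well plates receive the compound at five concentrations for 48 hours. Endpoints are linearly interpolated between the surrounding concentrations. The concentration for 50% growth inhibition is given as GI50. TGI: concentration producing complete growth inhibition.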

Legend:
Assay in all cases: NCI tumour cell line growth inhibition, 48 h
786-0 renal = test system: 786-0 renal
A498 renal = test system: A498 renal
A549 NSCLC = test system: A549 NSCLC
ACHN renal = test system: ACHN renal
BT-549 breast = test system: BT-549 breast
CAKI-1 renal = test system: CAKI-1 renal
CCRF-CEM leukemia = test system: CCRF-CEM leukemia
COLO 205 colon = test system: COLO 205 colon
DU-145 prostate = test system: DU-145 prostate
EKVX NSCLC = test system: EKVX NSCLC
HCC-2998 colon = test system: HCC-2998 colon
HCT-116 colon = test system: HCT-116 colon
HCT-15 colon = test system: HCT-15 colon
HL-60(TB) leukemia = test system: HL-60(TB) leukemia
HOP-62 NSCLC = test system: HOP-62 NSCLC
HT29 colon = test system: HT29 colon
IGROV1 ovarian = test system: IGROV1 ovarian
K-562 leukemia = test system: K-562 leukemia
KM12 colon = test system: KM12 colon
M14 melanoma = test system: M14 melanoma
MALME-3M melanoma = test system: MALME-3M melanoma
MCF7 breast = test system: MCF7 breast
MOLT-4 leukemia = test system: MOLT-4 leukemia
NCI-H226 lung = test system: NCI-H226 lung
NCI-H23 lung = test system: NCI-H23 lung
NCI-H460 lung = test system: NCI-H460 lung
NCI-H522 lung = test system: NCI-H522 lung
NCI/ADR-RES ovarian = test system: NCI/ADR-RES ovarian
OVCAR-3 ovarian = test system: OVCAR-3 ovarian
OVCAR-5 ovarian = test system: OVCAR-5 ovarian
OVCAR-8 ovarian = test system: OVCAR-8 ovarian
PC-3 prostate = test system: PC-3 prostate
RPMI-8226 leukemia = test system: RPMI-8226 leukemia
RXF 393 renal = test system: RXF 393 renal
SF-268 CNS = test system: SF-268 CNS
SF-295 CNS = test system: SF-295 CNS
SF-539 CNS = test system: SF-539 CNS
SK-MEL-2 melanoma = test system: SK-MEL-2 melanoma
SK-MEL-28 melanoma = test system: SK-MEL-28 melanoma
SK-MEL-5 melanoma = test system: SK-MEL-5 melanoma
SK-OV-3 ovarian = test system: SK-OV-3 ovarian
SN12C renal = test system: SN12C renal
SNB-19 CNS = test system: SNB-19 CNS
SNB-75 CNS = test system: SNB-75 CNS
SR leukemia = test system: SR leukemia
SW-620 colon = test system: SW-620 colon
TK-10 renal = test system: TK-10 renal
U251 CNS = test system: U251 CNS
UACC-257 melanoma = test system: UACC-257 melanoma
UACC-62 melanoma = test system: UACC-62 melanoma
UO-31 renal = test system: UO-31 renal
HOP-92 NSCLC = test system: HOP-92 NSCLC
HS 578T breast = test system: HS 578T breast
LOX IMVI melanoma = test system: LOX IMVI melanoma
MDA-MB-231 breast = test system: MDA-MB-231 breast
MDA-MB-435 = test system: MDA-MB-435
OVCAR-4 ovarian = test system: OVCAR-4 ovarian
T-47D breast = test system: T-47D breast

COc1c(Br)cc(/C=C(\C#N)c2ccccn2)cc1Br
TGI (786-0 renal): 25600 nM
TGI (A498 renal): 9570 nM
TGI (A549 NSCLC): > 100000 nM
TGI (ACHN renal): > 100000 nM
TGI (BT-549 breast): 94800 nM
TGI (CAKI-1 renal): > 100000 nM
TGI (CCRF-CEM leukemia): > 100000 nM
TGI (COLO 205 colon): > 100000 nM
TGI (DU-145 prostate): > 100000 nM
TGI (EKVX NSCLC): 50900 nM
TGI (HCC-2998 colon): > 100000 nM
TGI (HCT-116 colon): > 100000 nM
TGI (HCT-15 colon): > 100000 nM
TGI (HL-60(TB) leukemia): > 100000 nM
TGI (HOP-62 NSCLC): 89100 nM
TGI (HT29 colon): > 100000 nM
TGI (IGROV1 ovarian): > 100000 nM
TGI (K-562 leukemia): > 100000 nM
TGI (KM12 colon): > 100000 nM
TGI (M14 melanoma): > 100000 nM
TGI (MALME-3M melanoma): > 100000 nM
TGI (MCF7 breast): > 100000 nM
TGI (MOLT-4 leukemia): > 100000 nM
TGI (NCI-H226 lung): > 100000 nM
TGI (NCI-H23 lung): > 100000 nM
TGI (NCI-H460 lung): > 100000 nM
TGI (NCI-H522 lung): > 100000 nM
TGI (NCI/ADR-RES ovarian): > 100000 nM
TGI (OVCAR-3 ovarian): > 100000 nM
TGI (OVCAR-5 ovarian): > 100000 nM
TGI (OVCAR-8 ovarian): > 100000 nM
TGI (PC-3 prostate): > 100000 nM
TGI (RPMI-8226 leukemia): > 100000 nM
TGI (RXF 393 renal): 75100 nM
TGI (SF-268 CNS): > 100000 nM
TGI (SF-295 CNS): > 100000 nM
TGI (SF-539 CNS): > 100000 nM
TGI (SK-MEL-2 melanoma): 41800 nM
TGI (SK-MEL-28 melanoma): > 100000 nM
TGI (SK-MEL-5 melanoma): > 100000 nM
TGI (SK-OV-3 ovarian): > 100000 nM
TGI (SN12C renal): > 100000 nM
TGI (SNB-19 CNS): > 100000 nM
TGI (SNB-75 CNS): 17100 nM
TGI (SR leukemia): > 100000 nM
TGI (SW-620 colon): > 100000 nM
TGI (TK-10 renal): > 100000 nM
TGI (U251 CNS): > 100000 nM
TGI (UACC-257 melanoma): > 100000 nM
TGI (UACC-62 melanoma): 73800 nM
TGI (UO-31 renal): > 100000 nM

O=C(c1ccco1)c1c(C(F)(F)F)n([O-])c2ccc(F)cc2[n+]1=O
GI50 (786-0 renal): 1270 nM
TGI (786-0 renal): 3940 nM
GI50 (A498 renal): 8530 nM
TGI (A498 renal): 24300 nM
GI50 (A549 NSCLC): 3080 nM
TGI (A549 NSCLC): 9870 nM
GI50 (ACHN renal): 1330 nM
TGI (ACHN renal): 2620 nM
GI50 (BT-549 breast): 996 nM
TGI (BT-549 breast): 2980 nM
GI50 (CAKI-1 renal): 1600 nM
TGI (CAKI-1 renal): 3260 nM
GI50 (CCRF-CEM leukemia): 400 nM
TGI (CCRF-CEM leukemia): 2970 nM
GI50 (COLO 205 colon): 524 nM
TGI (COLO 205 colon): 1360 nM
GI50 (DU-145 prostate): 2240 nM
TGI (DU-145 prostate): 7040 nM
GI50 (EKVX NSCLC): 2950 nM
TGI (EKVX NSCLC): 8090 nM
GI50 (HCC-2998 colon): 775 nM
TGI (HCC-2998 colon): 2020 nM
GI50 (HCT-116 colon): 824 nM
TGI (HCT-116 colon): 2410 nM
GI50 (HCT-15 colon): 219 nM
TGI (HCT-15 colon): 855 nM
GI50 (HL-60(TB) leukemia): 186 nM
TGI (HL-60(TB) leukemia): 452 nM
GI50 (HOP-62 NSCLC): 3000 nM
TGI (HOP-62 NSCLC): 13700 nM
GI50 (HOP-92 NSCLC): 802 nM
TGI (HOP-92 NSCLC): 2550 nM
GI50 (HS 578T breast): 1840 nM
TGI (HS 578T breast): 7080 nM
GI50 (IGROV1 ovarian): 1230 nM
TGI (IGROV1 ovarian): 2780 nM
GI50 (K-562 leukemia): 65 nM
TGI (K-562 leukemia): 219 nM
GI50 (KM12 colon): 213 nM
TGI (KM12 colon): 568 nM
GI50 (LOX IMVI melanoma): 785 nM
TGI (LOX IMVI melanoma): 2240 nM
GI50 (M14 melanoma): 1480 nM
TGI (M14 melanoma): 2930 nM
GI50 (MALME-3M melanoma): 1090 nM
TGI (MALME-3M melanoma): 3210 nM
GI50 (MCF7 breast): 258 nM
TGI (MCF7 breast): 1890 nM
GI50 (MDA-MB-231 breast): 1610 nM
TGI (MDA-MB-231 breast): 3440 nM
GI50 (MDA-MB-435): 1300 nM
TGI (MDA-MB-435): 2750 nM
GI50 (MOLT-4 leukemia): 219 nM
TGI (MOLT-4 leukemia): 540 nM
GI50 (NCI-H226 lung): 5380 nM
TGI (NCI-H226 lung): 22100 nM
GI50 (NCI-H23 lung): 1020 nM
TGI (NCI-H23 lung): 2490 nM
GI50 (NCI-H460 lung): 926 nM
TGI (NCI-H460 lung): 11700 nM
GI50 (NCI-H522 lung): 1700 nM
TGI (NCI-H522 lung): 3440 nM
GI50 (NCI/ADR-RES ovarian): 2190 nM
TGI (NCI/ADR-RES ovarian): 5590 nM
GI50 (OVCAR-3 ovarian): 757 nM
TGI (OVCAR-3 ovarian): 2240 nM
GI50 (OVCAR-4 ovarian): 1350 nM
TGI (OVCAR-4 ovarian): 2640 nM
GI50 (OVCAR-5 ovarian): 5970 nM
TGI (OVCAR-5 ovarian): 17500 nM
GI50 (OVCAR-8 ovarian): 558 nM
TGI (OVCAR-8 ovarian): 1170 nM
GI50 (PC-3 prostate): 1010 nM
TGI (PC-3 prostate): 2470 nM
GI50 (RPMI-8226 leukemia): 180 nM
TGI (RPMI-8226 leukemia): 573 nM
GI50 (RXF 393 renal): 759 nM
TGI (RXF 393 renal): 2140 nM
GI50 (SF-268 CNS): 1240 nM
TGI (SF-268 CNS): 2850 nM
GI50 (SF-295 CNS): 4690 nM
TGI (SF-295 CNS): 17900 nM
GI50 (SF-539 CNS): 2550 nM
TGI (SF-539 CNS): 8320 nM
GI50 (SK-MEL-2 melanoma): 910 nM
TGI (SK-MEL-2 melanoma): 2470 nM
GI50 (SK-MEL-28 melanoma): 1460 nM
TGI (SK-MEL-28 melanoma): 2790 nM
GI50 (SK-MEL-5 melanoma): 1840 nM
TGI (SK-MEL-5 melanoma): 5880 nM
GI50 (SK-OV-3 ovarian): 6020 nM
TGI (SK-OV-3 ovarian): 18600 nM
GI50 (SN12C renal): 1330 nM
TGI (SN12C renal): 3380 nM
GI50 (SNB-19 CNS): 1060 nM
TGI (SNB-19 CNS): 2410 nM
GI50 (SNB-75 CNS): 1590 nM
TGI (SNB-75 CNS): 7910 nM
GI50 (SW-620 colon): 316 nM
TGI (SW-620 colon): 1160 nM
GI50 (T-47D breast): 540 nM
TGI (T-47D breast): 3210 nM
GI50 (TK-10 renal): 1420 nM
TGI (TK-10 renal): 3360 nM
GI50 (U251 CNS): 1330 nM
TGI (U251 CNS): 2600 nM
GI50 (UACC-257 melanoma): 1470 nM
TGI (UACC-257 melanoma): 2810 nM
GI50 (UACC-62 melanoma): 1210 nM
TGI (UACC-62 melanoma): 2550 nM
GI50 (UO-31 renal): 1600 nM
TGI (UO-31 renal): 3000 nM
